A short description of data set [1]: Half-life in Human Liver Microsomes (HLM). The note with it: human, human liver microsomes (HL101), pH 7.4.
In a further data set the target is T1, human VR1 receptors (Homo sapiens, UniProt Q8NER1).
T1 construct: host or cells: cells highly expressing human VR1; cell type not specified
The experiment in a line: Human VR1 antagonist assay (Ca2+ imaging). The data set is classed as cell-based. The settings on record: cells expressing human VR1, fura-2 Ca2+ imaging, FDSS 6000; capsaicin (300 nM) or acid (pH5.8) stimulation, table does not say which. The text has this:
Human VR1 Antagonist Assay
VR1 antagonistic activity can be determined by the Ca^2+ imaging assay using human VR1 highly expressing cells. The cells that highly express human VR1 receptors are obtainable from several different conventional methods. The one standard method is cloning from human Dorsal Root Ganglion (DRG) or kidney according to the methods such as described in the journal article; Nature, 389, pp 816-824, 1997. Alternatively VR1 receptors highly expressing human keratinocytes are also known and published in the journal article (Biochemical and Biophysical Research Communications, 291, pp 124-129, 2002). […] Further more, the method to up regulate human VR1 gene, which is usually a silent gene or don't produce detectable level of VR1 receptors, is also available to obtain propriety cells. Such genetic modification method was described in detail; Nat. Biotechnol., 19, pp 440-445, 2001.
The cells that express human VR1 receptors were maintained in culture flask at 37° C. in an environment containing 5% CO2 until use in the assay. The intracellular Ca^2+ imaging assay to determine VR1 antagonistic activities were done by following procedures.
The culture medium was removed from the flask and fura-2/AM fluorescent calcium indicator was added to the flask at a concentration of 5 μM in the medium. The flask was placed in CO2 incubator and incubated for 1 hour. Then the cells expressing the human VR1 receptors were detached from the flask follow by washing with phosphate buffer saline, PBS(−) and re-suspended in assay buffer. The 80 μl of aliquot of cell suspension (3.75×10^5 cells/ml) was added to the assay plate and the cells were spun down by centrifuge (950 rpm, 20° C., 3 minutes).
Capsaicin Stimulation Assay:
The capsaicin-induced changes in the intracellular calcium concentration were monitored using FDSS 6000 (Hamamatsu Photonics, Japan), a fluorometric imaging system. The cell suspension in Krebs-Ringer HEPES (KRH) buffer (115 mM NaCl, 5.4 mM KCl, 1 mM MgSO4, 1.8 mM CaCl2, 11 mM D-Glucose, 25 mM HEPES, 0.96 mM Na2HPO4, pH 7.3) were pre-incubated with varying concentrations of the test compounds or KRH buffer (buffer control) for 15 minutes at room temperature under the dark condition. Then capsaicin solution, which gives 300 nM in assay mixture, was automatically added to the assay plate by the FDSS 6000.
The Acid-induced changes in the intracellular calcium concentration were monitored using FDSS 6000 (Hamamatsu Photonics, Japan), a fluorometric imaging system. The cell suspension in resting buffer (HBSS supplemented with 10 mM HEPES, pH 7.4) were pre-incubated with varying concentrations of the test compounds or resting buffer (buffer control) for 15 minutes at room temperature under the dark condition. The cells were automatically added the stimulating solution (HBSS supplemented with MES, final assay buffer pH5.8) by the FDSS 6000.
Determination of Antagonist Activity
The monitoring of the changes in the fluorescence signals (λex=340 nm/380 nm, λem=510-520 nm) was initiated at 1 minute prior to the addition of capsaicin solution or acidic buffer and continued for 5 minute.

The results in this text go back to patent US7915448B2, “Substituted sulfonylaminoarylmethyl cyclopropanecarboxamide as VR1 receptor antagonists” (Pfizer Inc., priority 2005, dated 2011).

T1 sequence (Q8NER1 whole entry): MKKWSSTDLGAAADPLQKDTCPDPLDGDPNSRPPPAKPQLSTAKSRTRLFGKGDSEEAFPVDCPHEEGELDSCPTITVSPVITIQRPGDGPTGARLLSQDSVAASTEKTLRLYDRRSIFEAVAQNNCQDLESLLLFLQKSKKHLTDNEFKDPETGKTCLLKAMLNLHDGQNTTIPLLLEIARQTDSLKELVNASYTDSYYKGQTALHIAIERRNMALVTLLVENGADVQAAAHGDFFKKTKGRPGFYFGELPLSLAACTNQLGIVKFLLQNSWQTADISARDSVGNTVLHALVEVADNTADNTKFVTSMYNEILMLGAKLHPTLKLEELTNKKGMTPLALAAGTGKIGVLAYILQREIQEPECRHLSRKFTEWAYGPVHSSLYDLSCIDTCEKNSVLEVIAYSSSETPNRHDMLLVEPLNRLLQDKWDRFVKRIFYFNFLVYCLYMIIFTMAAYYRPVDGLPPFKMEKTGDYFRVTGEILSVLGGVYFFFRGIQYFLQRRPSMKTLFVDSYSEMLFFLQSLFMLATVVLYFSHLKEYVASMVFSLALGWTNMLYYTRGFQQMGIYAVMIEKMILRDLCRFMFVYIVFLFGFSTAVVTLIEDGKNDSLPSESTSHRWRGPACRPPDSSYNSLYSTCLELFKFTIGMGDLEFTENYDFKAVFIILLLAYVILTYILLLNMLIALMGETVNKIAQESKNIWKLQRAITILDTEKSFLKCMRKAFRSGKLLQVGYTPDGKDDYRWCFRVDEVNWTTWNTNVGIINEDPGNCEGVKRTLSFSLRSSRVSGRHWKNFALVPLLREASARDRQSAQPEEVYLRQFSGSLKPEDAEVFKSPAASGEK

Take `CCc1cc([C@@H](C)NC(=O)C2CC2(C)c2cc(F)c(C(C)(C)C(F)(F)F)c(F)c2)ccc1NS(C)(=O)=O` (single isomer, unassigned) [Example 72]: the half-life at 1 μM in data set [1] is 52.6 min. Also, it took 8.5 nM to reach half-maximal inhibition on human VR1 receptors (IC50).

`CCc1cc([C@@H](C)NC(=O)C2CC2(C)c2ccc(OC(F)(F)F)cc2)ccc1NS(C)(=O)=O` (single isomer, unassigned) [Example 75]: the half-life at 1 μM in data set [1] is 10 min. At human VR1 receptors, this compound gave an IC50 of 11.8 nM.

The compound `C[C@@H](NC(=O)C1CC1(C)c1ccc(C(C)(C)C(F)(F)F)cc1)c1ccc(NS(C)(=O)=O)c(F)c1` (single isomer, unassigned) [Example 77] registered a half-life at 1 μM in data set [1] of 50 min. Besides, at human VR1 receptors, the IC50 came to 50.5 nM.

Turning to `Cc1cc([C@H](C)NC(=O)[C@H]2C[C@]2(C)c2ccc(C(F)(F)F)cc2)ccc1NS(C)(=O)=O` (single isomer, unassigned) [Example 82], the half-life at 1 μM in data set [1] was determined as 26 min. Also, the IC50 against human VR1 receptors was determined as 62 nM.

The compound `CC(C)(C)c1ccc(C2CC2C(=O)NCc2ccc(NS(C)(=O)=O)c(F)c2)cc1` (centres unmarked) [Example 1, 2-(4-tert-Butylphenyl)-N-{3-fluoro-4-[(methylsulfonyl)amino]benzyl}cyclopropanecarboxamide] displayed a half-life at 1 μM in data set [1] of 13 min. This compound registered an IC50 at human VR1 receptors of 330 nM.

`Cc1cc([C@@H](C)NC(=O)C2CC2c2ccc(C(C)(C)C)c(F)c2)ccc1NS(C)(=O)=O` (stereo partly drawn) [Example 2, 2-(4-tert-Butyl-3-fluorophenyl)-N-((1R)-1-{3-methyl-4-[(methylsulfonyl)amino]phenyl}ethyl)cyclopropanecarboxamide] registered a half-life at 1 μM in data set [1] of 32 min. The IC50 against human VR1 receptors turned out to be 11.2 nM.

Regarding `Cc1cc(CNC(=O)C2CC2c2ccc(C(C)(C)C)c(F)c2)ccc1NS(C)(=O)=O` (centres unmarked) [Example 4, 2-(4-tert-Butyl-3-fluorophenyl)-N-{3-methyl-4-[(methylsulfonyl)amino]benzyl}cyclopropanecarboxamide], in data set [1], the half-life at 1 μM was 9 min. This compound showed an IC50 on human VR1 receptors of 190 nM.

In data set [1], `Cc1cc(CNC(=O)C2CC2(C)c2ccc(C(C)(C)C)cc2)ccc1NS(C)(=O)=O` (centres unmarked) [Example 5, 2-(4-tert-Butylphenyl)-2-methyl-N-{3-methyl-4-[(methylsulfonyl)amino]benzyl}cyclopropanecarboxamide] displayed a half-life at 1 μM of 5 min. This compound returned an IC50 against human VR1 receptors of 40 nM.

`Cc1cc(CNC(=O)C2CC2c2ccc(C(C)(C)C(F)(F)F)cc2)ccc1NS(C)(=O)=O` (centres unmarked) [Example 6, N-{3-Methyl-4-[(methylsulfonyl)amino]benzyl}-2-[4-(2,2,2-trifluoro-1,1-dimethylethyl)phenyl]cyclopropanecarboxamide] gave a half-life at 1 μM in data set [1] of 18 min. This compound displayed an IC50 against human VR1 receptors of 18.3 nM.

For the compound `C[C@@H](NC(=O)C1CC1c1ccc(C(C)(C)C)cc1)c1ccc(NS(C)(=O)=O)c(F)c1` (stereo partly drawn) [Example 8, 2-(4-tert-Butylphenyl)-N-((1R)-1-{3-fluoro-4-[(methylsulfonyl)amino]phenyl}ethyl)cyclopropanecarboxamide], the half-life at 1 μM in data set [1] came to 37 min. For the same compound, the midpoint of inhibition at human VR1 receptors, the IC50, lay at 38 nM.

In data set [1], `Cc1nc([C@@H](C)NC(=O)C2CC2(C)c2ccc(C(C)(C)C(F)(F)F)cc2)ccc1NS(C)(=O)=O` (stereo partly drawn) [Example 9, 2-Methyl-N-((1R)-1-{6-methyl-5-[(methylsulfonyl)amino]pyridin-2-yl}ethyl)-2-[4-(2,2,2-trifluoro-1,1-dimethylethyl)phenyl]cyclopropanecarboxamide] had a half-life at 1 μM of 42 min. The compound further registered an IC50 against human VR1 receptors of 171 nM.

In data set [1], `Cc1cc([C@@H](C)NC(=O)C2CC2(C)c2ccc(C(C)(C)C)nc2)ccc1NS(C)(=O)=O` (stereo partly drawn) [Example 10, 2-(6-tert-Butylpyridin-3-yl)-2-methyl-N-((1R)-1-{3-methyl-4-[(methylsulfonyl)amino]phenyl}ethyl)cyclopropanecarboxamide] yielded a half-life at 1 μM of 22 min. Moreover, inhibition on human VR1 receptors was half-maximal at 3.59 nM (IC50).

The compound `Cc1cc([C@@H](C)NC(=O)C2CC2(C)c2ccc(C(F)(F)F)nc2)ccc1NS(C)(=O)=O` (stereo partly drawn) [Example 12, 2-Methyl-N-((1R)-1-{3-methyl-4-[(methylsulfonyl)amino]phenyl}ethyl)-2-[6-(trifluoromethyl)pyridin-3-yl]cyclopropanecarboxamide] registered a half-life at 1 μM in data set [1] of 83 min. Moreover, it took 27 nM to reach half-maximal inhibition at human VR1 receptors (IC50).

In data set [1], `Cc1nc([C@@H](C)NC(=O)[C@H]2C[C@]2(C)c2ccc(C(F)(F)F)cc2)ccc1NS(C)(=O)=O` [Example 14, (1S,2S)-2-Methyl-N-((1R)-1-{6-methyl-5-[(methylsulfonyl)amino]pyridin-2-yl}ethyl)-2-[4-(trifluoromethyl)phenyl]cyclopropanecarboxamide] registered a half-life at 1 μM greater than 120 min. Also, the IC50 against human VR1 receptors stood at 203 nM.

Compound `Cc1cc([C@@H](C)NC(=O)[C@H]2C[C@]2(C)c2ccc(C(F)(F)F)cc2)ccc1NS(C)(=O)=O` [Example 15, (1S,2S)-2-Methyl-N-((1R)-1-{3-methyl-4-[(methylsulfonyl)amino]phenyl}ethyl)-2-[4-(trifluoromethyl)phenyl]cyclopropanecarboxamide] registered a half-life at 1 μM in data set [1] of 38 min. In addition, at human VR1 receptors, the IC50 was 0.71 nM.

With `Cc1cc([C@@H](C)NC(=O)C2CC2(C)c2ccc(OC(F)(F)F)cc2)ccc1NS(C)(=O)=O` (stereo partly drawn) [Example 16, 2-Methyl-N-((1R)-1-{3-methyl-4-[(methylsulfonyl)amino]phenyl}ethyl)-2-[4-(trifluoromethoxy)phenyl]cyclopropanecarboxamide], the half-life at 1 μM in data set [1] was determined as 53 min. For the same compound, on human VR1 receptors, it took 6.59 nM to reach half-maximal inhibition (IC50).

Take `C[C@@H](NC(=O)C1CC1c1ccc(C(C)(C)C(F)(F)F)cc1)c1ccc(NS(C)(=O)=O)c(F)c1` (stereo partly drawn) [Example 18, N-((1R)-1-{3-Fluoro-4-[(methylsulfonyl)amino]phenyl}ethyl)-2-[4-(2,2,2-trifluoro-1,1-dimethylethyl)phenyl]cyclopropanecarboxamide]: the half-life at 1 μM in data set [1] was found to be 119 min. On human VR1 receptors, this compound came in with a 50% inhibitory concentration (IC50) of 282 nM.

Compound `Cc1cc([C@@H](C)NC(=O)C2CC2c2ccc(C(F)(F)F)cc2)ccc1NS(C)(=O)=O` (stereo partly drawn) [Example 19a, N-((1R)-1-{3-Methyl-4-[(methylsulfonyl)amino]phenyl}ethyl)-2-[4-(trifluoromethyl)phenyl]cyclopropanecarboxamide] gave a half-life at 1 μM in data set [1] greater than 120 min. On human VR1 receptors, this compound came in with an IC50 of 23 nM.

Compound `C[C@@H](NC(=O)C1CC1c1ccc(C(F)(F)F)cc1)c1ccc(NS(C)(=O)=O)c(CO)c1` (stereo partly drawn) [Example 20, N-((1R)-1-{3-(Hydroxymethyl)-4-[(methylsulfonyl)amino]phenyl}ethyl)-2-[4-(trifluoromethyl)phenyl]cyclopropanecarboxamide] returned a half-life at 1 μM in data set [1] greater than 120 min. This compound also yielded an IC50 at human VR1 receptors of 47 nM.

Regarding `C[C@@H](NC(=O)[C@H]1C[C@]1(C)c1ccc(C(F)(F)F)cc1)c1ccc(NS(C)(=O)=O)cc1` [Example 21, (1S,2S)-2-Methyl-N-((1R)-1-{4-[(methylsulfonyl)amino]phenyl}ethyl)-2-[4-(trifluoromethyl)phenyl]cyclopropanecarboxamide], in data set [1], the half-life at 1 μM is greater than 120 min. This compound also came in with an IC50 at human VR1 receptors of 20.1 nM.

In data set [1], `C[C@@H](NC(=O)[C@H]1C[C@]1(C)c1ccc(C(F)(F)F)cc1)c1ccc(NS(C)(=O)=O)c(CO)c1` [Example 22, (1S,2S)-N-((1R)-1-{3-(Hydroxymethyl)-4-[(methylsulfonyl)amino]phenyl}ethyl)-2-methyl-2-[4 (trifluoromethyl)phenyl]cyclopropanecarboxamide] returned a half-life at 1 μM of 37 min. Also, the IC50 against human VR1 receptors turned out to be 1.2 nM.

`C[C@@H](NC(=O)[C@H]1C[C@]1(C)c1ccc(C(F)(F)F)cc1)c1ccc(NS(C)(=O)=O)c(F)c1` [Example 23, (1S,2S)-N-((1R)-1-{3-Fluoro-4-[(methylsulfonyl)amino]phenyl}ethyl)-2-methyl-2-[4-(trifluoromethyl)phenyl]cyclopropanecarboxamide] had a half-life at 1 μM in data set [1] greater than 120 min. The same compound returned a 50% inhibitory concentration (IC50) at human VR1 receptors of 10.9 nM.
